Laboratory results from US11034648B2, “Cystobactamide derivatives” (priority 2017, dated 2021).
Values after ≈ are worked out from the molar mass of the structure shown. Where two headings read alike, the source gives them in different places.

What was measured:
Format in all cases: cell-based
E. coli ΔtolC = test: microbe, parasite or virus in culture; settings: Escherichia coli, 16 h
Method: (§1) Cystobactamid derivatives synthesized were tested against relevant Gram negative and positive bacteria of clinical interest. Experimental procedures used for the biological characterization of the compounds are the same as previously described in WO 2016/082934.
(§2) Bacterial strains used in susceptibility assays (minimum inhibitory concentration, MIC) were either part of our internal strain collection or purchased from the German Collection of Microorganisms and Cell Cultures (Deutsche Sammlung von Mikroorganismen und Zellkulturen, DSMZ) and the American Type Culture Collection (ATCC). The susceptible E. coli strain (WT) and fluoroquinolone-resistant mutants E. coli WT-3 and WT-III were kindly provided by Prof Dr. P. Heisig, Pharmaceutical Biology and Microbiology, University of Hamburg, Germany. The efflux-deficient strain P. aeruginosa ΔmexAB was kindly provided by Prof Dr. S. Häußler, Institute for Molecular Bacteriology, TWINCORE, Hannover, Germany. All compounds were prepared as DMSO stocks and MIC values were determined in standard microbroth dilution assays in 96-well MTPs as described in Baumann et al., Angew Chem Int Ed Engl. 2014; 53(52):14605-9. In brief, overnight cultures of bacteria were diluted in either tryptic soy broth (TSB: 1.7% peptone casein, 0.3% peptone soymeal, 0.25% glucose, 0.5% NaCl, 0.25% K2HPO4; pH 7.3; S. pneumoniae and E. faecalis) or cation-adjusted Müller-Hinton Broth (BBL™, BD; all other bacteria) and adjusted to 10^4-10^6 cfu/mL. Bacteria were grown in the presence of the derivatives in serial dilution for approx. 16 h at 30-37° C. MIC values were determined and were defined as the antibiotic concentration at which no visual growth of bacteria was observed.

P. aeruginosa ΔmexAB = test: microbe, parasite or virus in culture; settings: Pseudomonas aeruginosa, 16 h
Method: as §1, §2

P. aeruginosa WT PA14 = test: MIC, microbroth dilution susceptibility assay; settings: Pseudomonas aeruginosa
Method: as §1, §2

S. aureus Newman = test: MIC, microbroth dilution susceptibility assay; settings: Staphylococcus aureus, NEWMAN, read-out: MIC S. aureus Newman
Method: as §1, §2

E. coli WT DSM-1116 = test: MIC, microbroth dilution susceptibility assay; settings: Escherichia coli, read-out: MIC E. coli WT DSM-1116
Method: as §1, §2

[1] = read-out: MIC E. coli ΔtolC, small panel, Tables 1a/1b, no visual growth after approx. 16 h
[2] = read-out: MIC P. aeruginosa ΔmexAB, efflux-deficient strain, small panel, Tables 1a/1b
[3] = PA14, small panel, Tables 1a/1b, read-out: MIC P. aeruginosa WT PA14
[4] = DSM1116, small panel, Tables 1a/1b, no visual growth after approx. 16 h

Row | SMILES | MIC (E. coli ΔtolC; [1]) [µg/mL] | MIC (P. aeruginosa ΔmexAB; [2]) [µg/mL] | MIC (P. aeruginosa WT PA14; [3]) [µg/mL] | MIC (S. aureus Newman; small panel, Tables 1a/1b) [µg/mL] | MIC (E. coli WT DSM-1116; [4]) [µg/mL] | MIC (E. coli ΔtolC; read-out: MIC E. coli ΔtolC) [µg/mL] | MIC (P. aeruginosa ΔmexAB; read-out: MIC P. aeruginosa ΔmexAB) [µg/mL] | MIC (P. aeruginosa WT PA14; PA14, read-out: MIC P. aeruginosa WT PA14) [µg/mL] | MIC (S. aureus Newman) [µg/mL] | MIC (E. coli WT DSM-1116; DSM1116, 16 h) [µg/mL]
1 | CC(=O)Nc1ccc(C(=O)Nc2ccc(C(=O)N[C@@H](CC(N)=O)C(=O)Nc3ccc(C(=O)Nc4ccc(C(=O)Nc5ccc(C(=O)O)cc5)c(O)c4OC(C)C)cc3)cc2)cc1 [Compound 36, (S)-4-(4-(4-(2-(4-(4-acetamidobenzamido)benzamido)-4-amino-4-oxobutanamido)benzamido)-2-hydroxy-3-isopropoxybenzamido)benzoic acid] | 0.06 (≈ 0.0711 µM) | > 64 | > 64 | 64 (≈ 75.8 µM) | 16 (≈ 19 µM) |  |  |  |  | 
2 | CC(C)Oc1c(NC(=O)c2ccc(NC(=O)[C@H](CC(N)=O)NC(=O)c3ccc(NC(=O)c4ccccc4)cc3)cc2)ccc(C(=O)Nc2ccc(C(=O)O)cc2)c1O [Compound 38, (S)-4-(4-(4-(4-amino-2-(4-benzamidobenzamido)-4-oxobutanamido)benzamido)-2-hydroxy-3-isopropoxybenzamido)benzoic acid] |  |  |  |  |  | 0.5 (≈ 0.635 µM) | 2 (≈ 2.54 µM) | > 64 | > 64 | > 64
3 | CC(C)Oc1c(NC(=O)c2ccc(NC(=O)[C@H](CC(N)=O)NC(=O)c3ccc(NC(=O)c4ccc(F)cc4)cc3)cc2)ccc(C(=O)Nc2ccc(C(=O)O)cc2)c1O [Compound 39, (S)-4-(4-(4-(4-amino-2-(4-(4-fluorobenzamido)benzamido)-4-oxobutanamido)benzamido)-2-hydroxy-3-isopropoxybenzamido)benzoic acid] | 0.5 (≈ 0.621 µM) | 2 (≈ 2.49 µM) | > 64 | 2 (≈ 2.49 µM) | 0.5 (≈ 0.621 µM) |  |  |  |  | 
4 | CC(C)Oc1c(NC(=O)c2ccc(NC(=O)[C@H](CC(N)=O)NC(=O)c3ccc(NC(=O)c4ccc(N)cc4)cc3)cc2)ccc(C(=O)Nc2ccc(C(=O)O)cc2)c1O [Compound 40, (S)-4-(4-(4-(4-amino-2-(4-(4-aminobenzamido)benzamido)-4-oxobutanamido)benzamido)-2-hydroxy-3-isopropoxybenzamido)benzoic acid] | 32 (≈ 39.9 µM) | 4 (≈ 4.99 µM) | > 64 | > 64 | 2 (≈ 2.49 µM) |  |  |  |  | 
5 | CC(C)Oc1c(NC(=O)c2ccc(NC(=O)[C@H](CC(N)=O)NC(=O)c3ccc(NC(=O)c4cccc([N+](=O)[O-])c4)cc3)cc2)ccc(C(=O)Nc2ccc(C(=O)O)cc2)c1O [Compound 41, (S)-4-(4-(4-(4-amino-2-(4-(3-nitrobenzamido)benzamido)-4-oxobutanamido)benzamido)-2-hydroxy-3-isopropoxybenzamido)benzoic acid] | 0.25 (≈ 0.301 µM) | 0.5 (≈ 0.601 µM) | > 64 | > 64 | > 64 |  |  |  |  | 
6 | CC(C)Oc1c(NC(=O)c2ccc(NC(=O)[C@H](CC(N)=O)NC(=O)c3ccc(NC(=O)c4cccc(N)c4)cc3)cc2)ccc(C(=O)Nc2ccc(C(=O)O)cc2)c1O [Compound 42, (S)-4-(4-(4-(4-amino-2-(4-(3-aminobenzamido)benzamido)-4-oxobutanamido)benzamido)-2-hydroxy-3-isopropoxybenzamido)benzoic acid] | 2 (≈ 2.49 µM) | 4 (≈ 4.99 µM) | > 64 | > 64 | 32 (≈ 39.9 µM) |  |  |  |  | 
7 | CC(C)Oc1c(NC(=O)c2ccc(NC(=O)[C@H](CC(N)=O)NC(=O)c3ccc(NC(=O)c4ccccc4[N+](=O)[O-])cc3)cc2)ccc(C(=O)Nc2ccc(C(=O)O)cc2)c1O [Compound 43, (S)-4-(4-(4-(4-amino-2-(4-(2-nitrobenzamido)benzamido)-4-oxobutanamido)benzamido)-2-hydroxy-3-isopropoxybenzamido)benzoic acid] | 2 (≈ 2.4 µM) | > 64 | > 64 | > 64 | > 64 |  |  |  |  | 
8 | CC(C)Oc1c(NC(=O)c2ccc(NC(=O)[C@H](CC(N)=O)NC(=O)c3ccc(NC(=O)c4ccc(C(F)(F)F)cc4)cc3)cc2)ccc(C(=O)Nc2ccc(C(=O)O)cc2)c1O [Compound 45, (S)-4-(4-(4-(4-amino-4-oxo-2-(4-(4-(trifluoromethyl)benzamido)benzamido)butanamido)benzamido)-2-hydroxy-3-isopropoxybenzamido)benzoic acid] | ≤ 0.03 | > 64 | > 64 | 16 to 32 (≈ 18.7 to 37.4 µM) | 0.5 (≈ 0.585 µM) |  |  |  |  | 
9 | CC(C)Oc1c(NC(=O)c2ccc(NC(=O)[C@H](CC(N)=O)NC(=O)c3ccc(NC(=O)c4ccc(NC(N)=O)cc4)cc3)cc2)ccc(C(=O)Nc2ccc(C(=O)O)cc2)c1O [Compound 46, (S)-4-(4-(4-(4-amino-4-oxo-2-(4-(4-ureidobenzamido)benzamido)butanamido)benzamido)-2-hydroxy-3-isopropoxybenzamido)benzoic acid] | 0.03 (≈ 0.0355 µM) | 4 (≈ 4.73 µM) | > 64 | 64 (≈ 75.8 µM) | 0.5 (≈ 0.592 µM) |  |  |  |  | 
10 | CC(C)Oc1c(NC(=O)c2ccc(NC(=O)[C@H](CC(N)=O)NC(=O)c3ccc(NC(=O)c4ccc(NC(=O)c5ccc([N+](=O)[O-])cc5)cc4)cc3)cc2)ccc(C(=O)Nc2ccc(C(=O)O)cc2)c1O [Compound 47, (S)-4-(4-(4-(4-amino-2-(4-(4-(4-nitrobenzamido)benzamido)benzamido)-4-oxobutanamido)benzamido)-2-hydroxy-3-isopropoxybenzamido)benzoic acid] | > 64 | > 64 | > 64 | > 64 | 2 (≈ 2.1 µM) |  |  |  |  | 
11 | CC(C)Oc1c(NC(=O)c2ccc(NC(=O)[C@H](CC(N)=O)NC(=O)c3ccc(NC(=O)c4ccc([N+](=O)[O-])c(OC(C)C)c4O)cc3)cc2)ccc(C(=O)Nc2ccc(C(=O)O)cc2)c1O [Compound 48, (S)-4-(4-(4-(4-amino-2-(4-(2-hydroxy-3-isopropoxy-4-nitrobenzamido)benzamido)-4-oxobutanamido)benzamido)-2-hydroxy-3-isopropoxybenzamido)benzoic acid] | > 64 | > 64 | > 64 | > 64 | > 64 |  |  |  |  | 
12 | Cc1cc(C#N)ccc1C(=O)Nc1ccc(C(=O)N[C@@H](CC(N)=O)C(=O)Nc2ccc(C(=O)Nc3ccc(C(=O)Nc4ccc(C(=O)O)cc4)c(O)c3OC(C)C)cc2)cc1 [Compound 50, (S)-4-(4-(4-(4-amino-2-(4-(4-cyano-2-methylbenzamido)benzamido)-4-oxobutanamido)benzamido)-2-hydroxy-3-isopropoxybenzamido)benzoic acid] | 0.03 (≈ 0.0363 µM) | 2 (≈ 2.42 µM) | > 64 | 64 (≈ 77.5 µM) | 0.5 (≈ 0.605 µM) |  |  |  |  | 
13 | CC(C)Oc1c(NC(=O)c2ccc(NC(=O)[C@H](CC(N)=O)NC(=O)c3ccc(NC(=O)c4ccc(C#N)c(F)c4)cc3)cc2)ccc(C(=O)Nc2ccc(C(=O)O)cc2)c1O [Compound 51, (S)-4-(4-(4-(4-amino-2-(4-(4-cyano-3-fluorobenzamido)benzamido)-4-oxobutanamido)benzamido)-2-hydroxy-3-isopropoxybenzamido)benzoic acid] | ≤ 0.03 | 0.5 (≈ 0.603 µM) | 8 (≈ 9.64 µM) | 2 (≈ 2.41 µM) | 0.25 (≈ 0.301 µM) |  |  |  |  | 
14 | Cc1cc(C(=O)Nc2ccc(C(=O)N[C@@H](CC(N)=O)C(=O)Nc3ccc(C(=O)Nc4ccc(C(=O)Nc5ccc(C(=O)O)cc5)c(O)c4OC(C)C)cc3)cc2)ccc1C#N [Compound 52, (S)-4-(4-(4-(4-amino-2-(4-(4-cyano-3-methylbenzamido)benzamido)-4-oxobutanamido)benzamido)-2-hydroxy-3-isopropoxybenzamido)benzoic acid] | 0.03 (≈ 0.0363 µM) | 0.5 (≈ 0.605 µM) | 4 (≈ 4.84 µM) | 2 (≈ 2.42 µM) | 0.5 (≈ 0.605 µM) |  |  |  |  | 
15 | CC(C)Oc1c(NC(=O)c2ccc(NC(=O)[C@H](CC(N)=O)NC(=O)c3ccc(NC(=O)C(C)Oc4ccccc4)cc3)cc2)ccc(C(=O)Nc2ccc(C(=O)O)cc2)c1O (stereo partly drawn) [Compound 54, 4-(4-(4-((2S)-4-amino-4-oxo-2-(4-(2-phenoxypropanamido)benzamido)butanamido)benzamido)-2-hydroxy-3-isopropoxybenzamido)benzoic acid] | 4 (≈ 4.81 µM) | > 64 | > 64 | > 64 | > 64 |  |  |  |  | 
16 | CC(C)Oc1c(NC(=O)c2ccc(NC(=O)[C@H](CC(N)=O)NC(=O)c3ccc(NC(=O)c4ccncc4)cc3)cc2)ccc(C(=O)Nc2ccc(C(=O)O)cc2)c1O [Compound 55, (S)-4-(4-(4-(4-amino-2-(4-(isonicotinamido)benzamido)-4-oxobutanamido)benzamido)-2-hydroxy-3-isopropoxybenzamido)benzoic acid] | < 0.03 | 2 (≈ 2.54 µM) | > 64 | > 64 | 1 (≈ 1.27 µM) |  |  |  |  | 
